In patent publication US20230013453A1, “RESVERATROL SKIN PREPARATION” (priority 2021, published 2023):

Assay: specification test of 98% trans-resveratrol (FIG. 5): solubility
Format: physicochemical
Settings: extracted or sieved 98% trans-resveratrol
Excerpt: It may be in powder form and either white or light yellow in color. […] It is also devoid of any significant amounts of metals, bacteria or other adulterants or additives.

In the case of `Oc1ccc(/C=C/c2cc(O)cc(O)c2)cc1` [trans-resveratrol], the solubility in ethanol is reported as “soluble in ethanol”.
